The subject of one assay is Helicobacter pylori. Kind of assay: In vitro inhibition of Helicobacter pylori (broth microdilution MIC). Particulars: Helicobacter pylori. For orientation: Broth dilution looks for growth in wells or tubes with falling amounts of substance.
Assay [1] relates to Mycobacterium tuberculosis (rMTB). Briefly: In vivo antimycobacterial activity against M. tuberculosis (rMTB) in lungs of mice. The conditions noted are these: 25 mg/kg daily oral gavage, CM-2, 10 days, control 117,258 (PA-824, 636, 1297) or 22,751 (others). On the set-up: species or system Mycobacterium tuberculosis Erdman, in female BALB/c mice.
For assay [2], the system named is Mycobacterium bovis BCG (recombinant strain). Kind of assay: microbe, parasite or virus in culture. In kind it is cell-based. Particulars: Mycobacterium tuberculosis variant bovis BCG, BCG, 144 h; 6 days 37° C.; read-out: MIC, column A, 3(S) compounds.
The test system of the next assay is Helicobacter felis. Kind of assay: In vivo activity against Helicobacter felis in mice (urease test of stomach biopsy). On the set-up: species or system in female CD-1 mice. The conditions noted are these: 50 mg/kg three times daily oral gavage, CM-2, four days; vehicle and untreated 100. As to the method: Female CD-1 mice weighing 30 grams were infected by oral gavage with 10^8 -10^9 colony forming units of H. felis. This infection process was repeated two, and four days, thereafter. Colonization of the stomach was allowed to occur over a seven day period. Animals were segregated into groups of five, and were treated three times daily by oral gavage with 50 mg/kg of test drugs prepared in the CM-2 formulation vehicle (Example 52). Treatment continued for four days. One group of animals received an equal volume of formulation vehicle alone, to ensure that the vehicle had no effect on the Helicobacter infection. A separate untreated control group was also included.
All animals were then sacrificed, the stomachs were removed, opened, and the contents washed out. A five millimeter diameter biopsy was removed, and transferred to a urease test solution containing a pH-sensitive dye, which was then incubated at 37° C. incubator for 24 hours. A blue or purple coloration in this test solution signifies a positive reaction, indicating the continued presence of viable Helicobacter bacteria; a negative result is indicated by a yellow coloration. Viable Helicobacter bacteria produce a urease enzyme which converts urea, of which there is an abundant supply in the stomach (from saliva and gastric juices), into bicarbonate and ammonia, which are strong bases. This mechanism is considered to provide conditions more amenable to the survival of Helicobacter in the otherwise acidic conditions prevalent in the stomach.

In assay [3] the test system is Mycobacterium tuberculosis (rMTB). Kind of assay: In vivo antimycobacterial activity against M. tuberculosis (rMTB) in spleens of mice. Particulars: 25 mg/kg daily oral gavage, CM-2, 10 days, control 422,866 (PA-824, 636, 1297) or 362,274 (others). On the set-up: species or system Mycobacterium tuberculosis Erdman, in female BALB/c mice.
Assay [4] has as its system Helicobacter pylori Strain 4187E. Briefly: In vivo activity against Helicobacter pylori strain 4187E in mice. Further details: species or system in outbred female white mice. Particulars: oral gavage, four days. The text has this:
Outbred female white mice (20 grams) were infected by oral gavage with 10^7 -10^8 colony forming units of H. pylori strain 4187E (originally isolated from a patient with a duodenal ulcer). […] Treatment continued for four days. Clarithromycin, administered at the same concentration and for the same duration, was included as a positive control. One group of animals also received an equal volume of formulation vehicle alone, to provide a negative control.
Five days after cessation of treatment, all animals were sacrificed, the stomachs were removed, opened, and the contents washed out. The entire mucosal surface was then spread evenly over the surface of an agar plate containing antibiotics appropriate for the prevention of growth of microorganisms other than Helicobacter spp. After seven days incubation under microaeropilic conditions at 37° C., culture plates were evaluated for bacterial growth.

Assay [5] has as its system Clostridium difficile ATCC 17857. Kind of assay: In vitro inhibition of Clostridium difficile (Oxyrase broth microdilution MIC). Type of assay: cell-based. Particulars: Clostridioides difficile, ATCC17857; Clostridium difficile ATCC 17857, Oxyrase broth; read-out: MIC, column D, 3(S) compounds.
Assay [6] relates to Mycobacterium tuberculosis H37Rv (sensitive strain). Kind of assay: MIC as determined by the BACTEC method, sensitive strain. The conditions noted are these: M. tuberculosis H37Rv (sensitive strain), read-out: MIC, column B, 3(S) compounds. Type of assay: cell-based.
The subject of assay [7] is Mycobacterium bovis (rBCG). Type of assay: in vivo. Particulars: 10 days.
In assay [8] the test system is Mycobacterium tuberculosis. Particulars: Ashtekar et al. 1993; cited from earlier work.
[9] abbreviates: 72 h, read-out: MIC against Helicobacter pylori, strain 17 (Table 5A).
[10] abbreviates: 72 h, read-out: MIC against Helicobacter pylori, strain 19 (Table 5A).
[11] abbreviates: 72 h, read-out: MIC against Helicobacter pylori, strain 20 (Table 5A).
[12] abbreviates: 72 h, read-out: MIC against Helicobacter pylori, strain 40 (Table 5A).
Setting [13] is: 72 h, read-out: MIC against Helicobacter pylori, strain 43 (Table 5A).
Setting [14] is: 72 h, read-out: MIC against Helicobacter pylori, strain 76 (Table 5A).
[15] abbreviates: ATCC43504, 72 h, read-out: MIC against Helicobacter pylori, strain ATCC 43504 (Table 5A).

Values after ≈ are worked out from the molar mass of the structure shown. Where two headings read alike, the source gives them in different places. Bounds are passed on as bounds.

As for `O=C(N[C@@H]1COc2nc([N+](=O)[O-])cn2C1)OCc1ccc(OC(F)(F)F)cc1` [PA-1343], the MIC with Helicobacter pylori (72 h, read-out: MIC against Helicobacter pylori, strain B40, Met-S, Clar-S (Table 5B)) is 0.8 µg/mL (≈ 1.99 µM); in the assay on Helicobacter pylori (72 h, read-out: MIC against Helicobacter pylori, strain B76, Met-R, Clar-S (Table 5B)) it was 12 µg/mL (≈ 29.8 µM); in the assay with Helicobacter pylori (72 h, read-out: MIC against Helicobacter pylori, strain C1649, Met-R, Clar-R (Table 5B)), 12 µg/mL (≈ 29.8 µM); in the assay on Helicobacter pylori (72 h, read-out: MIC against Helicobacter pylori, strain C11403, Met-S, Clar-R (Table 5B)) it was 1.5 µg/mL (≈ 3.73 µM); in the assay with Helicobacter pylori (72 h, read-out: MIC against Helicobacter pylori, strain C19765 (Table 5B)), 12 µg/mL (≈ 29.8 µM); in the assay with Helicobacter pylori (72 h, read-out: MIC against Helicobacter pylori, strain RD26, Met-S, Clar-S (Table 5B)), 3 µg/mL (≈ 7.46 µM). In addition, the MIC in the assay on Helicobacter pylori (72 h, read-out: MIC against Helicobacter pylori, strain rd26, Met-S, Clar-S (Table 5B)) was determined as 2 µg/mL (≈ 4.97 µM); with Helicobacter pylori (ATCC43504, 72 h, read-out: MIC against Helicobacter pylori, strain ATCC 43504, Met-R, Clar-S (Table 5B)), 10 µg/mL (≈ 24.9 µM); in the assay with Helicobacter pylori (ATCC43526, 72 h, read-out: MIC against Helicobacter pylori, strain ATCC 43526, Met-R, Clar-S (Table 5B)) it was 12 µg/mL (≈ 29.8 µM); with Helicobacter pylori (ATCC43579, 72 h, read-out: MIC against Helicobacter pylori, strain ATCC 43579, Met-S, Clar-S (Table 5B)), 1.5 µg/mL (≈ 3.73 µM); in the assay with Helicobacter pylori (ATCC43629, 72 h, read-out: MIC against Helicobacter pylori, strain ATCC 43629, Met-S, Clar-S (Table 5B)), 3 µg/mL (≈ 7.46 µM); in assay [2] it was 0.015 µg/mL (≈ 0.0373 µM). Besides, the “Average RLUs, M. tuberculosis (rMTB) in lungs” value in assay [1] was 606 RLUs. For the same compound, the “% Survival” value in the assay on Helicobacter felis is on record as 00%. For the same compound, the “Average RLUs, M. tuberculosis (rMTB) in spleens” value in assay [3] was 51,928 RLUs.

`CCCCc1ccc(CO[C@@H]2COc3nc([N+](=O)[O-])cn3C2)cc1` [PA-822]: the MIC worked out at 25 µg/mL (≈ 75.4 µM) in the assay on Helicobacter pylori (setting [9]); 0.2 µg/mL (≈ 0.604 µM) in the assay with Helicobacter pylori (setting [10]); 0.2 µg/mL (≈ 0.604 µM) in the assay on Helicobacter pylori (setting [11]); 0.2 µg/mL (≈ 0.604 µM) with Helicobacter pylori (setting [12]); 0.4 µg/mL (≈ 1.21 µM) with Helicobacter pylori (setting [13]); 6.25 µg/mL (≈ 18.9 µM) in the assay with Helicobacter pylori (setting [14]). In addition, the MIC is over 25 µg/mL in the assay on Helicobacter pylori (setting [15]), 12.5 µg/mL (≈ 37.7 µM) in assay [5] and 0.06 µg/mL (≈ 0.181 µM) in assay [2]. The “% Eradication” value in [4] (once daily 25 mg/kg), in assay [4] (twice daily 5 mg/kg) and in assay [4] (twice daily 50 mg/kg) was 0% each time. Further, the “% Survival” value in the assay on Helicobacter felis came to 100%.

For the compound `O=[N+]([O-])c1cn2c(n1)OC[C@@H](OCc1ccc(OCc3ccccc3)cc1)C2` [PA-647], the MIC in [6] is 0.03 µg/mL (≈ 0.0787 µM); with Helicobacter pylori (setting [9]), over 25 µg/mL; in the assay with Helicobacter pylori (setting [10]) it was 0.2 µg/mL (≈ 0.524 µM); with Helicobacter pylori (setting [11]) it was 0.2 µg/mL (≈ 0.524 µM); in the assay on Helicobacter pylori (setting [12]) it was 0.4 µg/mL (≈ 1.05 µM); in the assay on Helicobacter pylori (setting [13]), 0.4 µg/mL (≈ 1.05 µM). In addition, the MIC in the assay with Helicobacter pylori (setting [14]) was 3.12 µg/mL (≈ 8.18 µM); with Helicobacter pylori (setting [15]), over 25 µg/mL; in assay [5], 12.5 µg/mL (≈ 32.8 µM); in [2], 0.03 µg/mL (≈ 0.0787 µM). In addition, the “Average RLUs, M. bovis (rBCG) in spleens” value in assay [7] is reported as 19,916 RLUs. In the assay with Helicobacter felis, the “% Survival” value is listed as 100%.

On to `O=C(Nc1ccc(OC(F)(F)F)cc1)O[C@@H]1COc2nc([N+](=O)[O-])cn2C1` [PA-1297, 4-(Trifluoromethoxy)phenyl Carbamate of 3S Hydroxy-6-nitro-2H-3,4-dihydo-[2-1b]imidazopyran], for which the “Average RLUs, M. tuberculosis (rMTB) in lungs” value in assay [1] was 3,354 RLUs. The “% Eradication” value in assay [4] (once daily 25 mg/kg), in assay [4] (twice daily 5 mg/kg) and in [4] (twice daily 50 mg/kg) was 0% each time. Further, the MIC in assay [5] stood at 0.78 µg/mL (≈ 2.01 µM); in assay [2], 0.015 µg/mL (≈ 0.0386 µM). The “% Survival” value with Helicobacter felis is 100%. For the same compound, in [3], the “Average RLUs, M. tuberculosis (rMTB) in spleens” value is on record as 66,473 RLUs.

On to `CCC1Cn2cc([N+](=O)[O-])nc2O1` (centres unmarked) [CGI 17341, 2-ethyl-5-nitro-2,3-dihydro[2,1-b]imidazo-oxazole], for which the “activity against Mycobacterium tuberculosis” value in assay [8] is reported as “exhibit activity against Mycobacterium tuberculosis”.

As for `CC(C)(C)c1ccc(CO[C@@H]2COc3nc([N+](=O)[O-])cn3C2)cc1` [PA-653], the MIC in assay [6] amounted to 0.03 µg/mL (≈ 0.0905 µM); in [5], 3.12 µg/mL (≈ 9.42 µM); in assay [2], 0.06 µg/mL (≈ 0.181 µM). Moreover, the “Average RLUs, M. bovis (rBCG) in spleens” value in [7] is recorded as 229,080 RLUs.

As for `CC(C)=CCC/C(C)=C/CO[C@@H]1COc2nc([N+](=O)[O-])cn2C1` [PA-626], the MIC in [6] amounted to 0.13 µg/mL (≈ 0.405 µM); in [5], 0.8 µg/mL (≈ 2.49 µM); in [2], 0.5 µg/mL (≈ 1.56 µM).

(Values after patent US6087358A (priority 1997, dated 2000).)
